# In patent publication US12629374B2, “Antimalarial agents” (Merck Sharp & Dohme LLC, priority 2020, dated 2026):
# Test system: ring stage parasites
# Test: Parasite growth potency assay, 72 hours, LDH readout
# Format: cell-based
# Conditions: 72 h, parasite growth measured by LDH assay after 72 hours at 37° C.; 0.7% rings, 2% haematocrit; read-out: EC50
# Procedure, shortened: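 Parasite growth was quantified by LDH assay after a −80 °C freeze-thaw. Before that, compound was incubated for 72 h at 37 °C under humidified gas with ring-stage cultures adjusted to 0.7% parasitemia and 2% haematocrit in serum- and albumax-supplemented RPMI-Hepes.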
row,SMILES,EC50
1,"CCC1(CC)CC(=O)N([C@H](c2cncnc2)c2cccc(C(=O)N[C@@H]3c4ccccc4C[C@H]3O)c2)C(=N)N1 [Example 110B, 3-[(4,4-diethyl-2-imino-6-oxo-hexahydropyrimidin-1-yl)-pyrimidin-5-yl-methyl]-N-[(1R,2R)-2-hydroxyindan-1-yl]benzamide]",8.3 nM
2,"CC#CCC[C@H](c1cncc(C(=O)N[C@H]2CC(C)(C)Oc3ccccc32)c1)N1C(=N)NC(CC)(CC)CC1=O [Example 111, [1-[1-[5-[[(4S)-2,2-dimethylchroman-4-yl]carbamoyl]pyridin-1-ium-3-yl]hex-4-ynyl]-4,4-diethyl-6-oxo-hexahydropyrimidin-2-ylidene]ammonium; 2,2,2-trifluoroacetate]",0.4 nM
3,"CCC1(CC)CC(=O)N([C@H](COCCOC)c2cccc(C(=O)N[C@H]3CC(C)(C)Oc4ccccc43)c2)C(=N)N1 [Example 112A, [1-[1-[3-[[(4S)-2,2-dimethylchroman-4-6-oxo-hexahydropyrimidin-2-ylidene]ammonium; 2,2,2-trifluoroacetate]",0.3 nM
4,"CCC1(CC)CC(=O)N(Cc2cccc(C(=O)NC3(C)CCOc4ccccc43)c2)C(=N)N1 (centres unmarked) [Example 113, 3-[(4,4-diethyl-2-imino-6-oxo-hexahydropyrimidin-1-yl)methyl]-N-(4-methylchroman-4-yl)benzamide]",96.1 nM
5,"C#CCC[C@H](c1cncc(C(=O)N[C@H]2CC(C)(C)Oc3ccccc32)c1)N1C(=N)N[C@](C)(C(C)C)CC1=O [Example 114A, [(4S)-1-[1-[5-[[(4S)-2,2-dimethylchroman-4-yl]carbamoyl]pyridin-1-ium-3-yl]pent-4-ynyl]-4-isopropyl-4-methyl-6-oxo-hexahydropyrimidin-2-ylidene]ammonium; 2,2,2-trifluoroacetate]",0.3 nM
6,"C#CCC[C@@H](c1cncc(C(=O)N[C@H]2CC(C)(C)Oc3ccccc32)c1)N1C(=N)N[C@](C)(C(C)C)CC1=O [Example 114B, [(4S)-1-[1-[5-[[(4S)-2,2-dimethylchroman-4-yl]carbamoyl]pyridin-1-ium-3-yl]pent-4-ynyl]-4-isopropyl-4-methyl-6-oxo-hexahydropyrimidin-2-ylidene]ammonium; 2,2,2-trifluoroacetate]",18.4 nM
7,"CCC1(CC)CC(=O)N([C@H](c2ccc(S(C)(=O)=O)cc2)c2cccc(C(=O)N[C@H]3CC(C)(C)Oc4ccccc43)c2)C(=N)N1 [Example 115A, [1-[[3-[[(4S)-2,2-dimethylchroman-4-yl]carbamoyl]phenyl]-(4-methylsulfonylphenyl)methyl]-4,4-diethyl-6-oxo-hexahydropyrimidin-2-ylidene]ammonium; 2,2,2-trifluoroacetate]",1 nM
8,"CCC1(CC)CC(=O)N([C@@H](c2ccc(S(C)(=O)=O)cc2)c2cccc(C(=O)N[C@H]3CC(C)(C)Oc4ccccc43)c2)C(=N)N1 [Example 115B, [1-[[3-[[(4S)-2,2-dimethylchroman-4-yl]carbamoyl]phenyl]-(4-methylsulfonylphenyl)methyl]-4,4-diethyl-6-oxo-hexahydropyrimidin-2-ylidene]ammonium; 2,2,2-trifluoroacetate]",4.4 nM
9,"CCC1(CC)CC(=O)N([C@H](c2ccc(S(C)(=O)=O)cc2)c2cccc(C(=O)N[C@@H]3c4ccccc4C[C@H]3O)c2)C(=N)N1 [Example 116, [4,4-diethyl-1-[[3-[[(1R,2R)-2-hydroxyindan-1-yl]carbamoyl]phenyl]-(4-methylsulfonylphenyl)methyl]-6-oxo-hexahydropyrimidin-2-ylidene]ammonium; chloride]",6.8 nM
10,"CCC12CCCCCCCC3CC(NC(=O)c4cccc(c4)CN(C(=N)N1)C(=O)C2)c1ccccc1O3 (centres unmarked) [Example 118, (26-ethyl-8,29-dioxo-17-oxa-1,9,27-triazapentacyclo[24.2.2.13,7.110,18. 011,16]dotriaconta-3,5,7(32),11(16),12,14-hexaen-28-ylidene)ammonium; 2,2,2-trifluoroacetate]",56.5 nM
11,"CCC[C@H](c1cccc(C(=O)N[C@@H]2c3ccccc3OC(C)(C)[C@H]2O)c1)N1C(=N)NC(CC)(CC)CC1=O [Example 119A, [4,4-diethyl-1-[(1R)-1-[3-[(3-hydroxy-2,2-dimethyl-chroman-4-yl)carbamoyl]phenyl]butyl]-6-oxo-hexahydropyrimidin-2-ylidene]ammonium; 2,2,2-trifluoroacetate]",0.5 nM
12,"CCC[C@H](c1cccc(C(=O)N[C@H]2c3ccccc3OC(C)(C)[C@@H]2O)c1)N1C(=N)NC(CC)(CC)CC1=O [Example 119B, [4,4-diethyl-1-[(1R)-1-[3-[(3-hydroxy-2,2-dimethyl-chroman-4-yl)carbamoyl]phenyl]butyl]-6-oxo-hexahydropyrimidin-2-ylidene]ammonium; 2,2,2-trifluoroacetate]",34 nM
13,"CCC[C@H](c1cccc(C(=O)N[C@@H]2c3ccccc3CC2(C)O)c1)N1C(=N)NC(CC)(CC)CC1=O (stereo partly drawn) [Example 122A, 3-[(1R)-1-(4,4-diethyl-2-imino-6-oxo-hexahydropyrimidin-1-yl)butyl]-N-(2-hydroxy-2-methyl-indan-1-yl)benzamide]",1.2 nM
14,"CCC1(CC)CC(=O)N([C@@H](c2cccc(C(=O)N[C@H]3CCOc4ccccc43)c2)c2cccc(S(C)(=O)=O)c2)C(=N)N1 [Example 123A, [1-[[3-[[(4S)-chroman-4-yl]carbamoyl]phenyl]-(3-methylsulfonylphenyl)methyl]-4,4-diethyl-6-oxo-hexahydropyrimidin-2-ylidene]ammonium; 2,2,2-trifluoroacetate]",1.9 nM
15,"CCC1(CC)CC(=O)N([C@H](c2cccc(C(=O)N[C@H]3CCOc4ccccc43)c2)c2cccc(S(C)(=O)=O)c2)C(=N)N1 [Example 123B, [1-[[3-[[(4S)-chroman-4-yl]carbamoyl]phenyl]-(3-methylsulfonylphenyl)methyl]-4,4-diethyl-6-oxo-hexahydropyrimidin-2-ylidene]ammonium; 2,2,2-trifluoroacetate]",9.3 nM
16,"CCC1(CC)CC(=O)N([C@@H](c2cccc(C(=O)N[C@@H]3c4ccccc4C[C@H]3O)c2)c2cccc(S(C)(=O)=O)c2)C(=N)N1 [Example 124A, [4,4-diethyl-1-[[3-[[(1R,2R)-2-hydroxyindan-1-yl]carbamoyl]phenyl]-(3-methylsulfonylphenyl)methyl]-6-oxo-hexahydropyrimidin-2-ylidene]ammonium; 2,2,2-trifluoroacetate]",9.9 nM
17,"CCC1(CC)CC(=O)N([C@H](c2cccc(C(=O)N[C@@H]3c4ccccc4C[C@H]3O)c2)c2cccc(S(C)(=O)=O)c2)C(=N)N1 [Example 124B, [4,4-diethyl-1-[[3-[[(1R,2R)-2-hydroxyindan-1-yl]carbamoyl]phenyl]-(3-methylsulfonylphenyl)methyl]-6-oxo-hexahydropyrimidin-2-ylidene]ammonium; 2,2,2-trifluoroacetate]",53 nM
18,"CCC1(CC)CC(=O)N([C@H](CCOC)c2cncc(C(=O)N[C@@H]3c4ccccc4C[C@H]3O)c2)C(=N)N1 [Example 125, [4,4-diethyl-1-[1-[5-[[(1R,2R)-2-hydroxyindan-1-yl]carbamoyl]pyridin-1-ium-3-yl]-3-methoxy-propyl]-6-oxo-hexahydropyrimidin-2-ylidene]ammonium; 2,2,2-trifluoroacetate]",2.7 nM
19,"CCC[C@H](c1cccc(C(=O)N[C@H]2c3ccccc3OCC2O)c1)N1C(=N)NC(CC)(CC)CC1=O (stereo partly drawn) [Example 127A, 3-[(1R)-1-(4,4-diethyl-2-imino-6-oxo-hexahydropyrimidin-1-yl)butyl]-N-(3-hydroxychroman-4-yl)benzamide]",97.4 nM
20,"CCC[C@H](c1cccc(C(=O)N[C@@H]2c3ccccc3OCC2O)c1)N1C(=N)NC(CC)(CC)CC1=O (stereo partly drawn) [Example 127D, 3-[(1R)-1-(4,4-diethyl-2-imino-6-oxo-hexahydropyrimidin-1-yl)butyl]-N-(3-hydroxychroman-4-yl)benzamide]",1.2 nM
21,"COCC[C@H](c1cncc(C(=O)N[C@@H]2c3ccccc3C[C@H]2O)c1)N1C(=N)N[C@](C)(C(C)C)CC1=O [Example 130, [(4S)-1-[1-[5-[[(1R,2R)-2-hydroxyindan-1-yl]carbamoyl]pyridin-1-ium-3-yl]-3-methoxy-propyl]-4-isopropyl-4-methyl-6-oxo-hexahydropyrimidin-2-ylidene]ammonium; 2,2,2-trifluoroacetate]",18.8 nM
22,"CCC1(CC)CC(=O)N([C@@H](CCOC)c2cccc(C(=O)N[C@H]3C[C@H](C(F)(F)F)Oc4ccccc43)c2)C(=N)N1 [Example 132A, [[(2R,4S)-2-(trifluoromethyl)chroman-4-yl]carbamoyl]phenyl]propyl]-6-oxo-hexahydropyrimidin-2-ylidene]ammonium; 2,2,2-trifluoroacetate]",59 nM
23,"CCC1(CC)CC(=O)N([C@H](CCOC)c2cccc(C(=O)N[C@H]3C[C@H](C(F)(F)F)Oc4ccccc43)c2)C(=N)N1 [Example 132B, [4,4-diethyl-1-[3-methoxy-1-[3-[[(2R,4S)-2-(trifluoromethyl)chroman-4-yl]carbamoyl]phenyl]propyl]-6-oxo-hexahydropyrimidin-2-ylidene]ammonium; 2,2,2-trifluoroacetate]",0.9 nM

# Same assay, conditions: parasite growth measured by LDH assay after 72 hours at 37° C.; 0.7% rings, 2% haematocrit; read-out: EC50
row,SMILES,EC50
1,"CCC1(CC)CC(=O)N(C(c2cncnc2)c2cccc(C(=O)N[C@@H]3c4ccccc4C[C@H]3O)c2)C(=N)N1 (stereo partly drawn) [Example 110A, 3-[(4,4,-diethyl-2-imino-6-oxo-hexahydropyrimidin-1-yl)-pyrimidin-5-yl-methyl]-N-[(1R,2R)-2-hydroxyindan-1-yl]benzamide]",4 nM
2,"CCC[C@H](c1cccc(C(=O)N[C@@H]2c3ccccc3CC2(C)O)c1)N1C(=N)NC(CC)(CC)CC1=O (stereo partly drawn) [Example 122D, 3-[(1R)-1-(4,4-diethyl-2-imino-6-oxo-hexahydropyrimidin-1-yl)butyl]-N-(2-hydroxy-2-methyl-indan-1-yl)benzamide]",0.6 nM
3,"CCC[C@H](c1cccc(C(=O)N[C@H]2c3ccccc3OCC2O)c1)N1C(=N)NC(CC)(CC)CC1=O (stereo partly drawn) [Example 127C, 3-[(1R)-1-(4,4-diethyl-2-imino-6-oxo-hexahydropyrimidin-1-yl)butyl]-N-(3-hydroxychroman-4-yl)benzamide]",53.8 nM
